No end group written: not given here.
Legend:
PKAc:AMP-PNP = molecular target: T1, PKAc:AMP-PNP (Mus musculus, UniProt P05132); assay: Isothermal titration calorimetry of substrates binding to PKAc:AMP-PNP
T1 construct: 6xHis (N, cleaved yes); made in house; host or cells: Escherichia coli Rosetta (DE3)pLysS
Method: As an independent means to assess which substrate peptides are preferred by PKAc, we used ITC to determine the inherent affinities for the various peptides. ITC also provides the enthalpy and entropy changes upon binding and can thus help provide a rationale for different affinities. The ITC experiments were performed using excess Mg^2+ (5 mM) and 0.5 mM adenylyl-imidodiphosphate (AMP)-PNP (a nonhydrolyzable ATP analog) (Fig. 2).
ITC experiments were conducted using a MicroCal iTC200 (GE Healthcare, now Malvern) instrument. The ITC/assay buffer was used to dissolve peptides to a concentration of 1.25 to 4.3 mM. Substrate concentrations were optimized and chosen based on how much was needed to achieve sufficient signal to noise ratio. Rad Ser25 peptide contained a tryptophan residue, which allowed us to determine its concentration via 280 nm absorbance readings using an extinction coefficient of 5500 M^−1 cm^−1. For peptides lacking a tryptophan or tyrosine residue (Ser1981 WT and mutant peptides, Ser1718 peptide, Ser272 peptide, and Ser300 peptide), the amount of volume needed to achieve the desired concentration was calculated prior to diluting. Peptides were received as powder in 1 mg aliquots and using molecular weights of the peptide, the number of moles in each aliquot was determined. The number of moles was used to determine how much volume was required to achieve the desired concentration. AMP-PNP (Millipore Sigma) was dissolved in ITC/Assay buffer to a concentration of 100 mM, aliquoted in 20 μl volumes, and stored at −70 °C. Prior to each run, both titrant and titrand solutions were supplemented with AMP-PNP to a final concentration of 500 μM. The titration experiments were conducted at 4 °C with a stirring speed of 500 RPM. Each titration experiment was comprised of 20 injections with 230 s in between each injection. Each injection totalled 2.0 μl over 4 s except the first injection being 0.4 μl over 0.8 s. Background runs of peptide/substrate into ITC/assay buffer were conducted to generate a linear regression using the isotherm to subtract background heats from experimental runs. Peptides displaying large background heats were dialyzed in ITC/assay buffer for 60 min to remove contaminants remaining from peptide synthesis. The peptide into PKAc runs (experimental runs) utilized the same settings. The data was processed using Origin (Version 7.0, OriginLab) software (https://www.originlab.com/origin).

[1] = molecular target: PKAc (catalytic subunit of PKA, PKAcα 16-351) (Mus musculus, UniProt P05132); assay: ADP-Glo kinase assay, Michaelis-Menten kinetics of PKAc phosphorylation of substrates; conditions: for kcat / Km / kcat/Km: ADP-Glo, 3 nM PKAc, 1 mM ATP, 5 mM Mg2+; for kcat / Km: substrate 0-256 μM, room temperature 30 min; for kcat: 50 mM Hepes pH 7.4, 150 mM KCl, mean ± SD of n = 3 or 4 biological replicates, less reliable for poor substrates; for Km: Michaelis-Menten fit; for Km / kcat/Km: mean ± SD of n = 3 or 4; for reduction in kcat/Km versus WT Ser1981 peptide: from kcat/Km of Table 2
Method: We used enzyme kinetics to investigate the activity of catalytic subunit of PKA (PKAc) toward the three target sites within the C terminus of CaV1.2. We performed discontinuous kinase assays using an ADP-GloMax Assay kit.
Kinase assays were conducted using an ADP-Glo Kinase Assay Kit (Promega). […] Therefore, we performed assays with excess ATP (1 mM) and Mg^2+ (5 mM) to saturate PKAc prior to substrate binding. Reagents were prepared as described in the kit, aliquoted, and frozen at −20 °C prior to use. Reactions were conducted in 384-well solid white polystyrene microplates (Corning). Peptide substrates and EFPreIQ were dissolved and/or diluted to 800 μM using 50 mM Hepes (pH 7.4), 150 mM KCl, 5 mM MgCl2, and 4 mM TCEP. […] For peptides lacking tryptophan, the amount of volume needed to achieve a concentration of 800 μM was calculated prior to dissolving. The peptides/substrate was 2-fold serially diluted using the same buffer to create 11 reactions per curve ranging from 0 to 256 μM. ATP was added to each reaction to achieve a final concentration of 1 mM. Reactions were initiated by the addition of thawed PKAc at a final concentration of 3 nM at a final well volume of 20 μl. After allowing reactions to occur at room temperature for 30 min, 3 × 5 ml from each reaction in a curve was taken and mixed with 5 ml ADP-Glo Reagent for a total of three technical replicates per biological replicate. After 40 min, 10 ml of kinase detection reagent was added to each technical replicate and, after waiting 60 min, relative luminescence unit were measured using a VICTOR X4 Multilabel Plate Reader (PerkinElmer).
The relative luminescence unit values were converted to specific activity values via interpolation of a standard curve that was created in accordance with the manufacturer’s protocol. The three technical replicates were averaged to calculate a biological replicate value and plotted against peptide concentration using GraphPad 9 (Prism) software (https://www.graphpad.com/updates/prism-900-release-notes). Technical replicate values resulting from experimental error were removed from the dataset and subsequent averaging. […] The Michaelis–Menten kinetics fitting function was used to generate a nonlinear regression to calculate both a Km constant and Vmax value for each biological replicate curve. These Km constant and Vmax values were averaged and SDs are reported. Figures displaying data points and Michaelis–Menten curves depict the average specific activity values calculated from all biological replicates in the three or four experiments (n = 3 or n = 4) per peptide (n = 4 for Ser1981 and Ser272 peptides, n = 3 for all others).

[2] = 4 °C, 0.5 mM AMP-PNP, 5 mM MgCl2
[3] = ITC, 4 °C, 0.5 mM AMP-PNP, 5 mM MgCl2, mean ± SD, n = 3

Substance: RGFLRSASLGRAASFHL [R1979A peptide]
- binding to PKAc detected by ITC (PKAc:AMP-PNP; [2]): no longer detect any interaction
- enzymatic activity of PKAc toward the peptide ([1]; ADP-Glo kinase assay): very low
- kcat [1]: 1.1 ± 0.1 s⁻¹

Substance: RGFLRSARLGRRASFHL [S1975R peptide]
- ΔG (PKAc:AMP-PNP; [3]): -21.4 ± 9 kJ/mol
- −TΔS (PKAc:AMP-PNP; [3]): -36 ± 9 kJ/mol
- reduction in affinity for PKAc versus WT Ser1981 peptide (PKAc:AMP-PNP; ITC, from KD of Table 3): more than 15 fold
- kcat [1]: 7.5 ± 0.9 s⁻¹
- Km [1]: 6.2 ± 2.7 µM
- kcat/Km [1]: 1.2e+06 ± 500000 M⁻¹ s⁻¹
- reduction in kcat/Km versus WT Ser1981 peptide [1]: 37%

Substance: RGFLRSASLGRRASAHL [F1982A peptide]
- reduction in kcat/Km versus WT Ser1981 peptide [1]: ~26%

Substance: SNADYLTRDWSILG… [EFPreIQ (S1535)]
- binding to PKAc detected by ITC (PKAc:AMP-PNP; [2]): could not detect any heat signals indicative of binding
- kcat [1]: 1.3 ± 0.2 s⁻¹

Substance: SRKMAFRAKSKSCHD [Rad S300 peptide]
- binding to PKAc detected by ITC (PKAc:AMP-PNP; [2]): not
- kcat [1]: 3.3 ± 1.4 s⁻¹

Substance: LRRASLG [Kemptide, reference compound]
- kcat [1]: 19.0 ± 1.5 s⁻¹
- Km [1]: 42.6 ± 2.4 µM
- kcat/Km [1]: 470000 ± 50000 M⁻¹ s⁻¹

Substance: WGPAPPLHRRSMP [Rad S38 peptide]
- binding to PKAc detected by ITC (PKAc:AMP-PNP; [2]): not
- kcat [1]: 2 ± 1.9 s⁻¹
- kcat ([1]; listed as Ser38): 2.0 ± 1.9 s⁻¹

Substance: RTLHDIGPEIRRAISGDL [S1718 peptide]
- binding to PKAc detected by ITC (PKAc:AMP-PNP; [2]): could not detect any heat signals indicative of binding
- kcat [1]: 3.4 ± 1.3 s⁻¹

Reference: paper PMC11728977, “Crystallographic, kinetic, and calorimetric investigation of PKA interactions with L-type calcium channels and Rad GTPase” (The Journal of Biological Chemistry, 2024)
